Test results as given in patent publication EP1285918A1, “C7 Ester substituted taxanes as antitumor agents” (Florida State University Research Foundation, Inc., priority 2001, dated 2003).
Like-named read-outs stand apart in the source and are kept apart here.

Experiments:
[1] = test system: SKMES human lung cancer xenograft; conditions: for Survivors: 6 mice/group, study end Day 62; for 62-day survivors: SKMES, 6 mice
Description: Female Nu/Nu mice (6-8 weeks of age; implanted with 1 mm^3 SKMES lung carcinoma fragments in the flank) were sorted into treatment groups of six mice each. […] Treatment was administered as a single bolus on Day 1, and the study was terminated on Day 62.
The mean days of survival is the number of days after which a SKMES neoplasm reached a size of 2.0 g and the animal was euthanized. A complete response is obtained if the tumor is not palpable at the end of the study. A partial response is obtained if the tumor shrinks to a size smaller than its size on Day 1 of the study.

[2] = test system: HCT116 human colon carcinoma xenograft; conditions: for long term survivors at the end of the experiment: HCT116, i.v. and oral groups together (out of thirty), Day 60; for Survivors: 10 mice/group, study end Day 60
From the text: Six groups consisting of ten mice in each group were made up of female Nu/Nu mice (8-9 weeks of age; implanted with 1 mm^3 HCT116 human […] carcinoma fragments in the flank). Another six groups consisting of ten mice in each group were made up of male Nu/Nu mice (6-7 weeks of age; implanted with 1 mm^3 HCT116 human […] carcinoma fragments in the flank). […] The study was terminated on Day 60.
The results are summarized in Table 19 for the female mice and Table 20 for the male mice. Included are mean days of survival (MDS), number of toxic deaths, number of survivors, number of complete or partial responses, and number with stable disease. The mean days of survival is the number of days after which an […] neoplasm reached a size of 1.5 g and the animal was euthanized. A complete response is obtained if the tumor is not palpable at the end of the study. A partial response is obtained if the tumor shrinks to a size smaller than its size on Day 1 of the study. […]

[3] = test system: A375 Human Melanoma Xenograft; conditions: 10 mice/group, study end Day 60
Description: Female nu/nu mice (6-8 weeks of age; implanted subcutaneously with 1 mm^3 A375 melanoma fragments in the flank) were sorted into one control and four treatment groups of ten mice each (group mean tumor size of 96-98 mg). […] The study was terminated on Day 60.
The mean days of survival is the number of days after which a neoplasm reached a size of 2.0 g and the animal was euthanized. A complete response is obtained if the tumor is not palpable at the end of the study. A partial response is obtained if the tumor shrinks to a size smaller than its size on Day 1 of the study.

[4] = test system: HCT116 Human Colon Carcinoma Xenograft; conditions: HCT116; i.v. Day 1 (Taxol 36 mg/kg split dose, 1393 73 mg/kg single dose); 5 mice/group; Day 60

What does the source list for `CCC(=O)OC1CC2OCC2(OC(C)=O)C2C(OC(=O)c3ccccc3)C3(O)CC(OC(=O)C(O)C(NC(=O)OC(C)(C)C)c4ccco4)C(C)=C(C(O)C(=O)C12C)C3(C)C` (centres unmarked) [Compound 1393, 3'-Desphenyl-3'-(2-furyl)-7-propionyl taxotere]?
Survivors ([1]; 5.2 mg/kg single IV bolus Day 1): 0; Survivors ([1]; 5.2 mg/kg single oral bolus Day 1): 0; Survivors ([1]; 10.4 mg/kg single IV bolus Day 1): 0; Survivors ([1]; 10.4 mg/kg single oral bolus Day 1): 0; Survivors ([1]; 20.8 mg/kg single IV bolus Day 1): 0; Survivors ([1]; 20.8 mg/kg single oral bolus Day 1): 0; Survivors ([1]; 42 mg/kg single IV bolus Day 1): 4; Survivors ([1]; 42 mg/kg single oral bolus Day 1): 0; Survivors ([1]; 73 mg/kg single IV bolus Day 1): 6; Survivors ([1]; 73 mg/kg single oral bolus Day 1): 2; Survivors ([1]; 104 mg/kg single IV bolus Day 1): 6; Survivors ([1]; 104 mg/kg single oral bolus Day 1): 5; 62-day survivors ([1]; 1393 single IV bolus 42 mg/kg (Group 5)): four; 62-day survivors ([1]; 1393 single IV bolus 73 mg/kg (Group 4)): six; 62-day survivors ([1]; 1393 single IV bolus 104 mg/kg (Group 3)): six; 62-day survivors ([1]; 1393 single oral bolus 72.8 mg/kg (Group 12)): two; 62-day survivors ([1]; 1393 single oral bolus 104 mg/kg (Group 11)): Five; long term survivors at the end of the experiment ([2]; female mice, 1393 104 mg/kg): twenty-eight; long term survivors at the end of the experiment ([2]; male mice, 1393 73 mg/kg): Twenty-nine; Survivors ([2]; female mice, 104 mg/kg i.v. in 5% ethanol and 95% Liposyn II (Group 4)): 10; Survivors ([2]; female mice, 104 mg/kg i.v. in 5% ethanol and 95% Liposyn III (Group 5)): 10; Survivors ([2]; female mice, 104 mg/kg oral in 5% ethanol, 5% Cremophor and 90% isotonic saline (Group 6)): 9; Survivors ([2]; male mice, 73 mg/kg i.v. in 5% ethanol and 95% Liposyn II (Group 4)): 10; Survivors ([2]; male mice, 73 mg/kg i.v. in 5% ethanol and 95% Liposyn III (Group 5)): 8; Survivors ([2]; male mice, 73 mg/kg oral in 5% ethanol, 5% Cremophor and 90% isotonic saline (Group 6)): 10; Survivors ([3]; 104 mg/kg single oral bolus): 9; Survivors ([3]; oral 36.5 mg/kg on Days 1, 15, 29 and 43 (q14dx3, cumulative 109.5 mg/kg)): 4; Survivors ([3]; oral 73 mg/kg on Day 1, then 21.9 mg/kg on Days 11, 21, 31 and 41 (cumulative 160.6 mg/kg)): 9; Survivors [4]: 5
